In patent US20120185955A1, “HEDGEHOG INHIBITOR ASSAY” (priority 2005, published 2012):

What was measured:
[1] = tested on: Gli reporter activity in Sufu−/− MEFs; assay: 8×GliLuc luciferase reporter assay in Sufu−/− MEFs; type: cell-based, mouse
Method: For the luciferase reporter assays, 20,000 MEF cells were seeded into each well of a 24-well plate in MEF medium. The following day, cells were transfected using FuGENE 6 (Roche) with 300 ng of the luciferase reporter plasmids 8×GliLuc and 8×Gli^mutLuc (58) with or without 300 ng of the pMYC-SUFU expression plasmid (9), 300 ng of a constitutively active PKA catalytic subunit expression plasmid (59) or with 300 ng of the TOPflash and FOPflash reporter plasmids (Upstate Biotechnology), together with 50 ng the Renilla luciferase phRL-TK reporter (Promega) to monitor the transfection efficiency. […] The assays were conducted in triplicate and repeated at least three times. The values were normalized to the Renilla reporter before calculating relative levels.

[2] = tested on: EGFP::Gli1 nuclear export in MEFs; assay: GLI1 subcellular localization in MEFs (EGFP::GLI1, confocal); type: cell-based, mouse; conditions: Wt, Sufu−/− and Ptch1−/− MEFs; 10 ng/ml Leptomycin B, 3-6 hours
Method: Wt, Sufu^−/− and Ptch1^−/− MEFs (1×10^6 cells) were each transfected with 5 μg of the expression constructs containing GLI1 cDNA fused in frame 3′ of EGFP [EGFP::GLI1, (9)] or with the parental EGFP plasmid alone (BD Biosciences Clontech) in MEF 1 solution using Nucleofector technology, program T-20 (Amaxa Biosystems), and seeded onto slide chambers followed by culturing overnight. Twenty-four hours after transfection, cells were either treated with 10 ng/ml Leptomycin B (Sigma) for 3-6 hours or left untreated, washed in PBS, fixed in 4% PFA, washed in PBS again and incubated with DRAQ5 (Alexis Biochemicals) for visualization of cell nuclei, followed by mounting using ProLong Gold antifade reagent (Invitrogen). Fluorescence was visualized using a Zeiss LSM510 confocal microscope with lasers set at 488 nm for EGFP and at 633 nm for DRAQ5.

[3] = tested on: β-Galactosidase reporter enzyme (pSV40-lacZ); assay: Gli-independent β-Galactosidase construct (pSV40-lacZ) control; type: cell-based
[4] = tested on: GLI-induced transcription in Sufu−/− MEFs; assay: Substance testing: Hh/Gli reporter 8×GliLuc in Sufu−/− MEFs (inhibition of GLI-induced transcription); type: cell-based, mouse; conditions: 72 h of treatment
Method: Inhibition of GLI-induced transcription. (A) Sufu^−/− MEFs were transfected with Hh/Gli reporter plasmid 8×GliLuc and a renilla luciferase plasmid for normalisation. Luciferase activity was measured after 72 h of treatment time with the indicated compound.
For the substance testing, Sufu−/− MEF cells are transfected with 8×Gli and phRL-SV40 (or phRL-TK) plasmids using Fugene transfection reagent on larger plates. The day after transfection, cells are replated on suitable microwell plates. When cells reach confluency, substances, which are tested for inhibiting activity, (dissolved in DMSO) are added at a concentration of approximately 10 μM, or any other appropriate concentration. As control, the same volume of only DMSO without test compound is added (reaching a final concentration of e.g. 0.5-2% of DMSO in the cell culture medium) in order to assess solvent-based effects. Cells are lysed approximately 3-4 days later, and luciferase levels are measured using the Dual-Reporter Luciferase system (Promega) or any other suitable method.
Signals were recorded using the Dual Luciferase Kit (Promega) for luciferase measurements and Galacto-Light Plus (Applied Biosystems) for β-Galactosidase measurements.

Gli2 = conditions: HEK293 cells transfected with Gli2 plasmid; 48 h treatment
Method: (§1) Luciferase activity was measured after 72 h of treatment time with the indicated compound. […] (B) Gli1 inhibition, (C) Gli2 inhibition in HEK293 cells. Treatment was for 48 h after transfection of the corresponding Gli plasmid and a Hh/Gli reporter (12×GliBS-Luc) and a renilla luciferase plasmid for normalisation.
(§2) Transfections were done using Fugene (Roche) according to instructions given by the manufacturer.
(§3) Hh reporter assays were performed essentially as described (59, 60). Signals were recorded using the Dual Luciferase Kit (Promega) for luciferase measurements and Galacto-Light Plus (Applied Biosystems) for β-Galactosidase measurements.

Gli1 = conditions: HEK293 cells transfected with Gli1 plasmid; 48 h treatment
Method: as §1, §2, §3

C=C[C@@]1(C)CC(=O)[C@]2(O)[C@@]3(C)[C@@H](O)CCC(C)(C)[C@@H]3[C@H](O)[C@H](OC(C)=O)[C@@]2(C)O1 [forskolin]
inhibition at 100 µM ([1]; Mus musculus, 24 h, Sufu−/− MEFs, 100 μM forskolin, one day, read-out: Inhibition of the Gli-mediated response): ~50%

CCC(=C/[C@H](C)C/C=C/C(C)=C/[C@@H](C)C(=O)[C@@H](C)[C@H](O)[C@@H](C)C/C(C)=C/C(=O)O)/C=C/[C@@H]1OC(=O)C=C[C@@H]1C [LMB, Leptomycin B]
Subcellular localization of EGFP::Gli1 fusion protein [2]: strong nuclear retention

O=S(=O)(NCCNC/C=C/c1ccc(Br)cc1)c1cccc2cnccc12 [H-89]
Effect on the Gli response (8×GliLuc) ([1]; MEFs, 1 μM H-89, one day): no significant effect

CN(C)CCCNc1ccc2c(c1)C(=O)c1ccccc1C2=O [GANT55, 2-(3-Dimethylamino-propylamino)-anthraquinone]
Unspecific inhibition of the β-Galactosidase reporter enzyme [3]: not due to unspecific inhibition of the reporter enzyme
Luciferase signal intensity (8×GliLuc, renilla-normalised) [4]: reduces signal intensity in a dose-dependent manner

CC1=C2C[C@H]3[C@@H](CC=C4C[C@@H](O)CC[C@@]43C)[C@@H]2CC[C@]12O[C@@H]1C[C@H](C)CN[C@H]1[C@H]2C [Cyclopamine]
Gli2 inhibition (12×GliBS-Luc reporter) (Gli2): inactive
Gli1 inhibition (12×GliBS-Luc reporter) (Gli1): inactive
Luciferase signal intensity (8×GliLuc, renilla-normalised) [4]: ineffective

CNC1CCC(N(Cc2cccc(-c3ccncc3)c2)C(=O)c2sc3ccccc3c2Cl)CC1 (stereo not drawn) [SAG]
Effect on Gli reporter activity (8×GliLuc) ([1]; Sufu−/− MEFs, 10 μM cyclopamine or 100 nM SAG for two days): No further increase in Gli reporter activity
